The subject of one data set is NCI-H929 cells. Conditions: 25 nM of each drug, 48 h.
The next data set has as its system MM.1S cells. Description: Cytotoxicity (Cell Counting Kit-8) and Chou-Talalay synergy analysis, MM.1S. Type of data set: cell-based. As to conditions: 25 nM of each drug, 48 h.

Method for MM.1S cells: (§1) Cytotoxicity and Synergy Analysis. 2×10^5 cells/well were plated in a 96-well dish 16 h prior to the experiment. Cells were treated with respective cytotoxic agents at varying concentrations. Cytotoxicity was assessed at 48 h using Cell Counting Kit-8 Reagent (Dojindo Molecular Technologies, Rockville, Mass.).
Method for NCI-H929 cells: as §1

On to `CC(C)C[C@H](NC(=O)[C@H](CCc1ccccc1)NC(=O)CN1CCOCC1)C(=O)N[C@@H](Cc1ccccc1)C(=O)N[C@@H](CC(C)C)C(=O)[C@@]1(C)CO1` [carfilzomib], for which the cytotoxicity entry in the data set with NCI-H929 cells and in the data set with MM.1S cells was “minimal cytotoxicity” each time.
